In patent US20110071075A1, “PROMOTER FOR BICARBONATE SECRETION IN GASTROINTESTINAL TRACT” (priority 2008, published 2011):
Entries after “also recorded” stand apart in the source; their conditions may differ. *1 amine or outer side, *2 acyl side, *3 side chain or, on linkers, in order; H or OH if unused. Where no end group is shown, it is not given here. [ ]: non-standard residue; d: D form. γGlu = O=C(O)[C@H](CCC(=O)[*:2])N[*:1]

Legend:
gastric mucosal D cells = test: Somatostatin secretion of cultured fractionated gastric mucosal D cells (somatostatin ELISA); type: cell-based, male SD rat; conditions: 90 minutes culture
Description: The abdomen of each male SD rat was opened in the midline under anesthesia to remove the stomach. The stomach was ligated at the cardiac region and at the junction between the gastric body and the pylorus, and the pyloric region was excised. After that, the stomach was everted so that the luminal side is exposed outside. To the inside of the stomach, Buffer A containing 2.5 mg/ml protease (Sigma P6911, Protease, From Streptomyces griseus, 5.5 unit/mg solid) was injected to prepare a balloon. The balloon was shaken at 37° C. for 30 minutes in Buffer A for 30 minutes and in Buffer B for 30 minutes×three times. After that, the balloon was stirred three times in Buffer B containing 0.5 mg/ml DNase, the detached cells were centrifuged and then suspended in Buffer C. After the cell suspension had been filtered with a filter, cells were fractionated and collected with an elutriator manufactured by Hitachi, Ltd.
Repeated fractionation was conducted using an elutriator in accordance with Example 3 to collect D cells with high purity. After centrifugation, the cells were suspended in a cell culture medium (D-MEM/F-12 containing 10% FBS) and cultured in a CO2 incubator ([…]+5% CO2, 37° C.) (6×10^5 cells/250 μL/well). After 2-day culture, to the D cells washed with PBS was added each of CaSR agonists (20 μM cinacalcet (CCT), 20 μM γ-EVG, 10 mM phenylalanine (Phe), and 10 mM histidine (His)) mixed in a culture buffer (122 mM NaCl, 5 mM KCl, 25 mM NaHCO3, 1.3 mM MgSO4, 2 mM CaCl2, 15 mM HEPES, and 20 mM glucose, pH 7.4), and the cells were cultured for 90 minutes. After that, a culture supernatant was collected, filtered with a filter, and then measured for its somatostatin concentration with a somatostatin ELISA kit (manufactured by Phoenix, Calif.).
The somatostatin secretion was measured in accordance with the method of Example 4. After 2-day culture, to the D cells washed with PBS was added a CaSR agonist (20 μM γ-EVG), sodium glutamate (60 mM MSG), or a mixed solution thereof, mixed in a culture buffer (122 mM NaCl, 5 mM KCl, 25 mM NaHCO3, 1.3 mM MgSO4, 2 mM CaCl2, 15 mM HEPES, and 20 mM glucose, pH 7.4), and the cells were cultured for 90 minutes. After that, the culture supernatant was collected, filtered with a filter, and then the somatostatin concentration was measured by a somatostatin ELISA kit (Phoenix, Calif.).

NSAID-induced enteritis = test: NSAID (loxoprofen)-induced enteritis, damaged area in the small intestine; type: in vivo, rats; conditions: 30 minutes before loxoprofen 60 mg/kg oral, 24 hours
Description: To non-fasting rats, distilled water for injection containing cinacalcet (1, 3, 10, and 100 mg/kg) or γ-EVG (100 mg/kg), or distilled water for injection (control) was orally administered. After 30 minutes, loxoprofen (60 mg/kg) was orally administered, and the rats were left to stand for 24 hours. 1 ml of 1% (w/w) Evans Blue dye was intravenously administered, and after 30 minutes, the rats were euthanized under deep ether anesthesia. The small intestine (from the duodenum to the ileum) of each of the rats was removed, then immersed in 2% formalin for 10 minutes so that the small intestine might be fixed from the serosal side, and incised from the opposite side of the mesentery, and the damaged area in the small intestine (mm^2) was measured with a dissecting microscope of 10 times power. The t-test or Dunnett's test was used for a statistical test and p<0.05 was considered significant.

stomach = test: Bicarbonate secretion in the stomach of anesthetized rats (ex-vivo chamber, pH-stat method); design: species or system male SD rats; conditions: 10 mg/kg administered into the gastric lumen; omeprazole 60 mg/kg i.p. to inhibit acid secretion
Description: (§1) The bicarbonate secretion was evaluated in accordance with the methods of Aihara et al. (Aihara, E. et al. 2005. J. Pharmacol. Exp. Ther. 315: 423-432) and Kagawa et al. (Kagawa, S. et al. 2003. Digestive Diseases and Sciences 48: 1850-1856).
The bicarbonate secretion in the stomach was measured as described below. The abdomen of each of male SD rats was opened in the midline under anesthesia with urethane (1.25 g/kg/5 ml, intraperitoneal administration) to expose the stomach. The stomach was left to stand still in an ex-vivo chamber (Tamura Seisakusho; 3.1 cm^2) and perfused with physiological saline saturated with 100% O2 gas. In order to inhibit acid secretion, 60 mg/kg omeprazole was intraperitoneally administered. The bicarbonate secretion was continuously measured by dropping 2 mM HCl to a perfusate until an end point of pH 7.0 by employing a pH-stat method (TOA, AUT-501).
(§2) A drug was administered into the gastric or duodenal lumen after the bicarbonate secretion at the baseline had been measured for 30 minutes, and the bicarbonate secretion amount was measured every 10 minutes.

[1] = system: histamine-induced gastric acid secretion; test: Histamine-induced gastric acid secretion in the removed, perfused stomach (pH-stat method); design: species or system male ddY mice; conditions: for histamine-induced gastric acid secretion: 100 μM histamine
Description: A model prepared in accordance with the method reported by Horie et al. (British Journal of Pharmacology 1994; 112: 87-92) was used as a model for histamine-induced gastric acid secretion. That is, 6-week-old male ddY mice were fasted for 18 hours, and the stomach was removed from each of the mice under anesthesia with urethane (1.25 g/kg/10 ml, intraperitoneal administration). A polyethylene cannula was inserted at each of the pyloric and esophageal sides of the stomach, and the stomach was left to stand still in an organ bath filled with a buffer (118.1 mM NaCl, 4.8 mM KCl, 1.0 mM KH2PO4, 16.0 mM Na2HPO4, 1.2 mM MgSO4, 0.65 mM CaCl2, and 31.6 mM glucose, saturated with 95% O2/5% CO2 gas, 37° C.). The intragastric pressure was kept at 15 cmH2O, and the lumen of the stomach was perfused with a buffer (135.8 mM NaCl, 4.8 mM KCl, 1.2 mM MgSO4, 1.3 mM CaCl2, and 31.6 mM glucose, pH 5.4, saturated with 95% O2/5% CO2 gas, 37° C.) at a flow rate of 1 ml/min
The acid secretion amount was continuously measured by dropping 10 mM NaOH to a perfusate until an end point of pH 5.4 by employing a pH-stat method (TOA, AUT-501). The intragastric acid secretion amount during no stimulation was measured for 30 minutes, and then the remove stomach left to stand still in the organ bath was treated with 100 μM histamine and cinacalcet (1.26, 12.6, and 126 μM). The gastric acid secretion amount was titrated for up to 90 minutes. The Dunnett's test was used as a statistical test for an effect of cinacalcet.
The gastric acid secretion was measured in accordance with the method of Example 2.

duodenum = test: Bicarbonate secretion in the duodenum loop of anesthetized rats (pH-stat method); type: in vivo, male SD rats
Description: as §1
As for the bicarbonate secretion in the duodenum, the abdomen of each of male SD rats was opened under anesthesia, and a duodenum loop having a length of 1.7 cm from the pyloric ring of the stomach was prepared. The lumen of the loop was perfused with physiological saline saturated with 100% O2 gas (flow rate: 1 ml/min)
as §2
The abdomens of male SD rats were opened under anesthesia, and a duodenum loop having a length of 1.7 cm from the pyloric ring of the stomach was prepared. The lumen of the loop was perfused with physiological saline saturated with 100% O2 gas (flow rate: 1 ml/min).
After the bicarbonate secretion at the baseline had been measured for 30 minutes, distilled water for injection containing γ-EVG (100 mg/kg) or distilled water for injection (normal) was administered into the duodenal lumen, and the bicarbonate secretion amount was measured every 10 minutes.

## C[C@@H](NCCCc1cccc(C(F)(F)F)c1)c1cccc2ccccc12.Cl [cinacalcet, (R)—N-(3-(3-trifluoromethylphenyl)propyl)-1-(1-naphthyl)ethylamine hydrochloride]
Gastric mucosal D cells; 20 μM
  somatostatin secretion: remarkably promoted
NSAID-induced enteritis; 1, 3, 10 and 100 mg/kg oral
  damaged area in the small intestine: reduced the damaged area dose-dependently
stomach
  bicarbonate secretion in the stomach: promoted
[1]; 12.6 μM cinacalcet
  histamine-induced gastric acid secretion: inhibited
[1]; cinacalcet 1.26, 12.6 and 126 μM
  histamine-induced gastric acid secretion: inhibited histamine-induced gastric acid secretion dose-dependently
[1]; concentration of 126 μM
  histamine-induced gastric acid secretion: completely inhibited
duodenum; 10 mg/kg administered into the duodenal lumen
  bicarbonate secretion in the duodenum: promoted

## N[C@@H](CCC(=O)[O-])C(=O)[O-].[Na+].[Na+] [MSG, sodium glutamate]
Gastric mucosal D cells; 60 mM MSG
  somatostatin secretion: remarkably inhibited

## N[C@@H](Cc1ccccc1)C(=O)O [Phe, phenylalanine]
Gastric mucosal D cells; 10 mM
  somatostatin secretion: remarkably promoted

## N[C@@H](Cc1c[nH]cn1)C(=O)O [His, histidine]
Gastric mucosal D cells; 10 mM
  somatostatin secretion: remarkably promoted

## NCCc1c[nH]cn1 [histamine]
[1]; 100 μM histamine alone
  gastric acid secretion: promoted
[1]; 100 μM histamine stimulation, 0.5 to 0.8 nEq/10 min during no stimulation
  acid secretion amount: about 3.2 nEq/10 min

## [γGlu]-Val-Gly [γ-EVG]
Gastric mucosal D cells; 20 μM
  somatostatin secretion: remarkably promoted; also recorded: markedly promoted
NSAID-induced enteritis; 100 mg/kg oral
  damaged area in the small intestine: reduced the damaged area
duodenum; 100 mg/kg administered into the duodenal lumen
  bicarbonate secretion in the duodenum: promoted
